Source: US20260000692A1, “Substituted N-(Pyridin-2-yl)Acetamide Derivatives as CDK12/13 Inhibitors” (Aurigene Oncology Limited, priority 2022, published 2026)

Target: CDK12 (Homo sapiens, UniProt Q9NYV4)
Experiment: Biochemical assay for CDK12 (LANCE TR-FRET, IC50 determination)
Conditions: for IC50: CDK12, IC50 class, read-out: IC50 μM (in range); for inhibition at 10 µM / CDK12 % Inhibition @ 10 μM: compound at 10 μM; for inhibition at 10 µM: read-out: CDK12 % Inhibition @ 10 μM
Procedure, shortened: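 30 nM CDK12 phosphorylated 100 nM ULight-4E-BP1 (Thr37/Thr46) peptide at 100 µM ATP, as printed, in HEPES pH 7.5 buffer with MgCl2 and DTT. Compound and enzyme were preincubated 60 min, then reacted 60 min at room temperature before stopping with EDTA and Eu anti-phospho antibody. TR-FRET 665/615 ratio gave sigmoidal IC50 fits.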

Sequence of CDK12 (Q9NYV4 whole entry): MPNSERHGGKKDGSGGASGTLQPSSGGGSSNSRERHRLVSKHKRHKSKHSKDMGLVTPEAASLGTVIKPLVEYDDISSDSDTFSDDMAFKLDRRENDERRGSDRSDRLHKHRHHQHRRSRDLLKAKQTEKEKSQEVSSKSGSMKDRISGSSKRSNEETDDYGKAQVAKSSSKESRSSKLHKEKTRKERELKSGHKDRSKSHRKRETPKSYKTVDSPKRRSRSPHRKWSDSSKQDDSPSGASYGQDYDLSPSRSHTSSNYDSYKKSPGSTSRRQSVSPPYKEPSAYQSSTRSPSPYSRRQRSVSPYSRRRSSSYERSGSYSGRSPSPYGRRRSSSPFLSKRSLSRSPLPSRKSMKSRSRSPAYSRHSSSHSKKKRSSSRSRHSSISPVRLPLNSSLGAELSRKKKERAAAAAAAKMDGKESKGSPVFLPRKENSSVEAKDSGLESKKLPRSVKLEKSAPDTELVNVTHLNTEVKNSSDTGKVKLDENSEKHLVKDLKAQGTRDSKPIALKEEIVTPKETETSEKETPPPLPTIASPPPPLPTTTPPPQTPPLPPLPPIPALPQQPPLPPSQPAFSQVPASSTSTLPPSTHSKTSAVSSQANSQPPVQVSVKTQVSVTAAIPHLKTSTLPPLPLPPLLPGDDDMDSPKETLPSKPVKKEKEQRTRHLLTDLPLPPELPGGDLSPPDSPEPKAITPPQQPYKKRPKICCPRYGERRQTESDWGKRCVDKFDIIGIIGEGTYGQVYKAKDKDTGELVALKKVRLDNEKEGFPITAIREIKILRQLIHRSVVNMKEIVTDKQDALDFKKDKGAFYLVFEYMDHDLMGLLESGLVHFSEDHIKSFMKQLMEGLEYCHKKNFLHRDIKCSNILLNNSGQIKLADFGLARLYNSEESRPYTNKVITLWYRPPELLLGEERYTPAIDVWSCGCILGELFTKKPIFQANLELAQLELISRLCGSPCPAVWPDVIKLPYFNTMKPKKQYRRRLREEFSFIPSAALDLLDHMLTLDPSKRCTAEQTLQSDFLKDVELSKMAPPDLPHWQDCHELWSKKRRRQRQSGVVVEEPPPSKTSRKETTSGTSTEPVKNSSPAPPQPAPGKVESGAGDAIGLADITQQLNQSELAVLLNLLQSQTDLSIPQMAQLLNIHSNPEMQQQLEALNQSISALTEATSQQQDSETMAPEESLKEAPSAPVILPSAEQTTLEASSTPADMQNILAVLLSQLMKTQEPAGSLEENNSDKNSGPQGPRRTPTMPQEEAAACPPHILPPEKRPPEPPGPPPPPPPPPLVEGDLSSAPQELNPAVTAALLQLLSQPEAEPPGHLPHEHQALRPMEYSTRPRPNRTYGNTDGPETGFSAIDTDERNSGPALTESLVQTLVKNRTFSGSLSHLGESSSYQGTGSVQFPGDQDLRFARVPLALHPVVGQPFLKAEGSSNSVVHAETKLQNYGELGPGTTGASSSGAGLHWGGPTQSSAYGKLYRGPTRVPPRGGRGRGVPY
Sequence of CDK12 (O75909 whole entry partner): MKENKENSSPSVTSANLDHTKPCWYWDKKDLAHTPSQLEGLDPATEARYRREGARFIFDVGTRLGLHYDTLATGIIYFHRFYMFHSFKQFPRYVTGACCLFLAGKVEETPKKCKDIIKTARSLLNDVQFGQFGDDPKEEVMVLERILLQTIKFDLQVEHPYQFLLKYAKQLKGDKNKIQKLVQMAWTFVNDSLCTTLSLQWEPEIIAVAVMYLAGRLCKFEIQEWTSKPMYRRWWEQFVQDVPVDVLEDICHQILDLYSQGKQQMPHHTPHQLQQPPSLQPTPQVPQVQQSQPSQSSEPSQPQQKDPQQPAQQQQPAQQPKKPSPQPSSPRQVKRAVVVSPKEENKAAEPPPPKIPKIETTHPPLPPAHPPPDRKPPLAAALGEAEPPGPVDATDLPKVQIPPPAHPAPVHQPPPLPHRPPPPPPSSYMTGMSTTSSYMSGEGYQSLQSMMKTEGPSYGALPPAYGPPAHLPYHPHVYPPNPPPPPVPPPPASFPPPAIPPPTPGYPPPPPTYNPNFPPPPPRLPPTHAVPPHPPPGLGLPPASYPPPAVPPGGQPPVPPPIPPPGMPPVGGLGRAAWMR

| IC50 [µM] | inhibition at 10 µM [%] | CDK12 % Inhibition @ 10 μM [%] | inhibition at 2 µM (compound at 2 μM (stated in the cell, not the 10 μM of the column head)) [%] | Structure (SMILES) |
| --- | --- | --- | --- | --- |
| < 0.01 | 89 | – | – | N#CN1CCC=C(c2ccc(CC(=O)Nc3cc(OC4CCCOC4)c(Cl)cn3)cn2)C1 (single isomer, unassigned) [Compound 44, N-(5-chloro-4-((tetrahydro-2H-pyran-3-yl)oxy)pyridin-2-yl)-2-(1′-cyano-1′,2′,5′,6′-tetrahydro-[2,3′-bipyridin]-5-yl)acetamide] |
| < 0.01 | – | 92 | – | N#CN1CCC=C(c2ccc(CC(=O)Nc3cc(OC4CCCOC4)c(Cl)cn3)cn2)C1 (single isomer, unassigned) [Compound 45, N-(5-chloro-4-((tetrahydro-2H-pyran-3-yl)oxy)pyridin-2-yl)-2-(1′-cyano-1′,2′,5′,6′-tetrahydro-[2,3′-bipyridin]-5-yl)acetamide] |
| 0.01 to 0.1 | 87 | – | – | N#CN1CCC(c2ccc(CC(=O)Nc3cc(O[C@@H]4CCOC4)c(Cl)cn3)cn2)CC1 [Compound 98, (R)-N-(5-chloro-4-((tetrahydrofuran-3-yl)oxy)pyridin-2-yl)-2-(6-(1-cyanopiperidin-4-yl)pyridin-3-yl)acetamide] |
| 0.01 to 0.1 | 89 | – | – | CN1CCC(Oc2cc(NC(=O)Cc3ccc(C4=CCN(C#N)CC4)nc3)ncc2Cl)CC1 [Compound 11, N-(5-chloro-4-((1-methylpiperidin-4-yl)oxy)pyridin-2-yl)-2-(1′-cyano-1′,2′,3′,6′-tetrahydro-[2,4′-bipyridin]-5-yl)acetamide] |
| 0.01 to 0.1 | 83 | – | – | N#Cc1ncc(-c2ccc(CC(=O)Nc3cc(O[C@@H]4CCOC4)c(Cl)cn3)cn2)cn1 [Compound 150, (R)-N-(5-chloro-4-((tetrahydrofuran-3-yl)oxy)pyridin-2-yl)-2-(6-(2-cyanopyrimidin-5-yl)pyridin-3-yl)acetamide] |
| 0.01 to 0.1 | – | 77 | – | N#CN1CCCC(c2ccc(CC(=O)Nc3cc(O[C@@H]4CCOC4)c(Cl)cn3)cn2)C1 (single isomer, unassigned) [Compound 94] |
| > 0.1 | 91 | – | – | N#CN1CCCC(c2ccc(CC(=O)Nc3cc(O[C@H]4CCOC4)c(Cl)cn3)cn2)C1 (single isomer, unassigned) [Compound 96] |
| 0.01 to 0.1 | 94 | – | – | CN1CCC(Oc2cc(NC(=O)Cc3ccc(C4CCN(C#N)CC4)nc3)ncc2Cl)CC1 [Compound 129, N-(5-chloro-4-((1-methylpiperidin-4-yl)oxy)pyridin-2-yl)-2-(6-(1-cyanopiperidin-4-yl)pyridin-3-yl)acetamide] |
| > 0.1 | 79 | – | – | COc1cc(NC(=O)Cc2ccc(C3CCCN(C#N)C3)nc2)ncc1Cl (single isomer, unassigned) [Compound 79, N-(5-chloro-4-methoxypyridin-2-yl)-2-(6-(1-cyanopiperidin-3-yl)pyridin-3-yl)acetamide] |
| < 0.01 | 90 | – | – | COc1cc(CC(=O)Nc2cc(O[C@@H]3CCOC3)c(Cl)cn2)cnc1C1=CCN(C#N)CC1 [Compound 122, (R)-N-(5-chloro-4-((tetrahydrofuran-3-yl)oxy)pyridin-2-yl)-2-(1′-cyano-3-methoxy-1′,2′,3′,6′-tetrahydro-[2,4′-bipyridin]-5-yl)acetamide] |
| 0.01 to 0.1 | 86 | – | – | CN1CCC(Oc2cc(NC(=O)Cc3ccc(C4=CCN(C#N)CC4)nc3)ncc2Cl)C1 (stereo in doubt) [Compound 29, (R)-N-(5-chloro-4-((1-methylpyrrolidin-3-yl)oxy)pyridin-2-yl)-2-(1′-cyano-1′,2′,3′,6′-tetrahydro-[2,4′-bipyridin]-5-yl)acetamide] |
| < 0.01 | 96 | – | – | N#CN1CC=C(c2ccc(CC(=O)Nc3cc(OC4COC4)c(Cl)cn3)cn2)CC1 [Compound 15, N-(5-chloro-4-(oxetan-3-yloxy)pyridin-2-yl)-2-(1′-cyano-1′,2′,3′,6′-tetrahydro-[2,4′-bipyridin]-5-yl)acetamide] |

More lines, now with the values behind:

| Structure (SMILES) | IC50 [µM] | inhibition at 10 µM [%] | CDK12 % Inhibition @ 10 μM [%] | inhibition at 2 µM (compound at 2 μM (stated in the cell, not the 10 μM of the column head)) [%] |
| --- | --- | --- | --- | --- |
| CC(CN(C)C)Oc1cc(NC(=O)Cc2ccc(C3=CCN(C#N)CC3)nc2)ncc1Cl (centres unmarked) [Compound 31, N-(5-chloro-4-((1-(dimethylamino)propan-2-yl)oxy)pyridin-2-yl)-2-(1′-cyano-1′,2′,3′,6′-tetrahydro-[2,4′-bipyridin]-5-yl)acetamide] | < 0.01 | 89 | – | – |
| COc1cc(NC(=O)Cc2ccc(C3=CCN(C#N)C(C)C3)nc2)ncc1Cl (centres unmarked) [Compound 65, N-(5-chloro-4-methoxypyridin-2-yl)-2-(1′-cyano-2′-methyl-1′,2′,3′,6′-tetrahydro-[2,4′-bipyridin]-5-yl)acetamide] | < 0.01 | 87 | – | – |
| COc1cc(NC(=O)Cc2ccc(-c3cc(OCCN(C)C)cc(C#N)n3)nc2)ncc1Cl [Compound 170, N-(5-chloro-4-methoxypyridin-2-yl)-2-(6′-cyano-4′-(2-(dimethylamino)ethoxy)-[2,2′-bipyridin]-5-yl)acetamide] | 0.01 to 0.1 | 90 | – | – |
| COc1cc(NC(=O)Cc2ccc(-c3ccc(C#N)c(F)c3)nc2)ncc1Cl [Compound 149, N-(5-chloro-4-methoxypyridin-2-yl)-2-(6-(4-cyano-3-fluorophenyl)pyridin-3-yl)acetamide] | – | 54 | – | – |
| COc1cc(NC(=O)Cc2ccc(-c3cc(N4CC5CC4CN5C)cc(C#N)n3)nc2)ncc1Cl (centres unmarked) [Compound 181, N-(5-chloro-4-methoxypyridin-2-yl)-2-(6′-cyano-4′-(5-methyl-2,5-diazabicyclo[2.2.1]heptan-2-yl)-[2,2′-bipyridin]-5-yl)acetamide] | 0.01 to 0.1 | 92 | – | – |
| CNC(=O)[C@H](C)Oc1cc(NC(=O)Cc2ccc(-c3ccc(C#N)nc3)nc2)ncc1Cl [Compound 147, (S)-2-((5-chloro-2-(2-(6′-cyano-[2,3′-bipyridin]-5-yl)acetamido)pyridin-4-yl)oxy)-N-methylpropanamide] | 0.01 to 0.1 | 89 | – | – |
| COc1cc(NC(=O)Cc2ccc(-c3ccc(C)c(C#N)n3)nc2)ncc1Cl [Compound 158, N-(5-chloro-4-methoxypyridin-2-yl)-2-(6′-cyano-5′-methyl-[2,2′-bipyridin]-5-yl)acetamide] | > 0.1 | – | – | 70 |
| CN1CCC(Oc2cc(NC(=O)Cc3ccc(C4=CCN(C#N)CC4)nc3)ncc2Cl)C1 (stereo in doubt) [Compound 30, (S)-N-(5-chloro-4-((1-methylpyrrolidin-3-yl)oxy)pyridin-2-yl)-2-(1′-cyano-1′,2′,3′,6′-tetrahydro-[2,4′-bipyridin]-5-yl)acetamide] | 0.01 to 0.1 | 82 | – | – |
| COc1cc(NC(=O)Cc2ccc(-c3cc(N4CC(O)C4)cc(C#N)n3)nc2)ncc1Cl [Compound 182, N-(5-chloro-4-methoxypyridin-2-yl)-2-(6′-cyano-4′-(3-hydroxyazetidin-1-yl)-[2,2′-bipyridin]-5-yl)acetamide] | > 0.1 | 75 | – | – |
| COc1cc(NC(=O)Cc2ccc(-c3ccc(CNC#N)nc3)nc2)ncc1Cl [Compound 130, N-(5-chloro-4-methoxypyridin-2-yl)-2-(6′-(cyanamidomethyl)-[2,3′-bipyridin]-5-yl)acetamide] | 0.01 to 0.1 | 95 | – | – |
| COc1cc(NC(=O)Cc2ccc(-c3cccc(C#N)n3)c(F)c2)ncc1Cl [Compound 153, N-(5-chloro-4-methoxypyridin-2-yl)-2-(4-(6-cyanopyridin-2-yl)-3-fluorophenyl)acetamide] | – | 34 | – | – |
| COc1cc(NC(=O)Cc2ccc(-c3cccc(C#N)n3)nc2)ncc1Cl [Compound 156, N-(5-chloro-4-methoxypyridin-2-yl)-2-(6′-cyano-[2,2′-bipyridin]-5-yl)acetamide] | < 0.01 | 80 | – | – |
| COc1cc(NC(=O)Cc2ccc(C3=CCCN(C#N)C3)cc2Cl)ncc1Cl [Compound 112, 2-(2-chloro-4-(1-cyano-1,2,5,6-tetrahydropyridin-3-yl)phenyl)-N-(5-chloro-4-methoxypyridin-2-yl)acetamide] | 0.01 to 0.1 | 90 | – | – |
| N#CN1CC=C(c2ccc(CC(=O)Nc3cc(OC4CCC4)c(Cl)cn3)cn2)CC1 [Compound 28, N-(5-chloro-4-cyclobutoxypyridin-2-yl)-2-(1′-cyano-1′,2′,3′,6′-tetrahydro-[2,4′-bipyridin]-5-yl)acetamide] | < 0.01 | 95 | – | – |
| COc1cc(NC(=O)Cc2ccc(-c3cncc(C#N)n3)nc2)ncc1Cl [Compound 157, N-(5-chloro-4-methoxypyridin-2-yl)-2-(6-(6-cyanopyrazin-2-yl)pyridin-3-yl)acetamide] | < 0.01 | 84 | – | – |
| COc1cc(NC(=O)Cc2ccc(-c3ccnc(C#N)c3)nc2)ncc1Cl [Compound 142, N-(5-chloro-4-methoxypyridin-2-yl)-2-(2′-cyano-[2,4′-bipyridin]-5-yl)acetamide] | 0.01 to 0.1 | – | – | – |
| COc1cc(NC(=O)Cc2ccc(C3=CC4CCC3CN4C#N)nc2)ncc1Cl (centres unmarked) [Compound 81, N-(5-chloro-4-methoxypyridin-2-yl)-2-(6-(2-cyano-2-azabicyclo[2.2.2]oct-5-en-5-yl)pyridin-3-yl)acetamide] | < 0.01 | 87 | – | – |
| CNC(=O)C(C)Oc1cc(NC(=O)Cc2ccc(C3CCCN(C#N)C3)nc2)ncc1Cl (single isomer, unassigned) [Compound 90, 2-((5-chloro-2-(2-(6-(1-cyanopiperidin-3-yl)pyridin-3-yl)acetamido)pyridin-4-yl)oxy)-N-methylpropanamide] | 0.01 to 0.1 | – | 93 | – |
| COc1cc(NC(=O)Cc2ccc(-c3ccc(C#N)nc3)nc2)ncc1Cl [Compound 140, N-(5-chloro-4-methoxypyridin-2-yl)-2-(6′-cyano-[2,3′-bipyridin]-5-yl)acetamide] | > 0.1 | 83 | – | – |
